Test results taken from US11649228B2, “Zinc indicators for cellular imaging” (The Board of Regents of the University of Texas System, priority 2018, dated 2023).

Legend:
[1] = test system: MIN-6 β cells; assay: Confocal imaging of ZIGIR-labeled live β cells; assay type: cell-based, mouse
Protocol: To assess ZIGIRs' ability for imaging granular Zn^2+ in living cells, an insulin secreting β cell (MIN-6 cell) was labeled with ZIGIRs. After dye loading (0.5 μM for 15 min) and washing, cells were imaged by confocal laser scanning microscopy (CLSM). […] After raising cellular Zn^2+ level by adding a Zn^2+ ionophore (pyrithione, 10 μM) and Zn^2+ (20 μM), a drastic enhancement of ZIGIR-2 signal was observed. […] Subsequent washout of zinc/pyrithione and addition of a Zn^2+ chelator TPEN depleted cellular Zn^2+ activity and dampened ZIGIR-2 intensity to nearly the background level (FIGS. 6D & 6E). Overall ZIGIR-2 intensity increased about 12-fold going from the low Zn^2+ (TPEN) to the high Zn^2+ state (Zn^2+/pyrithione), with a cell-to-cell variation of 12.04±4.8 fold (mean±SD, N=20 cells).
MIN-6 β cells were cultured as previously described (Li et al., 2011). HEK293 cells were cultured in DMEM medium supplemented with 10% FBS and 1% Penicillin/Streptomycin. T47D cells were cultured in RPMI-1640 medium supplemented with 10% FBS, 0.5% non-essential amino acids, 1 mM sodium pyruvate, 10 μg/mL geneticin and 0.01 mg/mL insulin. H1299 cells were cultured in RPMI-1640 medium supplemented with 10% FBS. All cells were maintained at 37° C. with 5% CO2. For cell imaging, cells were seeded in 35-mm petri dishes with glass bottoms (MatTek) and cultured for ˜24 hours to reach ˜50% confluence. Prior to labeling, cells were washed with a secretion assay buffer (SAB) containing 114 mM NaCl, 4.7 mM KCl, 1.2 mM KH2PO4, 2.5 mM CaCl2, 1.16 mM MgSO4, 3 mM glucose, and 20 mM Hepes (pH 7.4). Cells were then incubated with ZIGIRs (0.5-1 μM) in SAB at 37° C. for 15 min, and washed with SAB before imaging on a Zeiss LSM 780 confocal microscope using 561 nm laser for exciting ZIGIR-2 (Em 570-650 nm) and 514 nm laser for exciting ZIGIR-1 (Em 516-650 nm). LysoTracker Green (ThermoFisher Scientific) was used at 0.4 μM to label acidic organelles and was added to cells <5 min before imaging. […] ZIGIR colocalization with LysoTracker Green was analyzed and quantified with JACoP plugin of ImageJ.

[2] = Metal ion selectivity of fluorescence response; assay type: physicochemical; settings: 1 μM sensor, 10 μM TPEN; against Na^+, K^+, Ca^2+, Mg^2+, Fe^2+, Ni^2+, Co^2+, Cu^2+, Mn^2+
Protocol: To study the metal selectivity, the fluorescence of ZIGIR-1 (1 μM) or ZIGIR-2 (1 μM) was measured in the presence of 10 μM TPEN and an excess of metal ion including 1 mM KCl, 1 mM NaCl, 1 mM CaSO4, 1 mM MgSO4, 15 μM MnSO4, 15 μM FeSO4, 15 μM NiSO4, 15 μM CoCl2, 15 μM CuSO4, 15 μM CdSO4 or 15 μM ZnSO4. The emission intensity was normalized to that of 15 μM ZnSO4 (100%).

Structure (SMILES): CN(C)c1ccc2c(-c3ccc(NCCN(CCc4ccccn4)Cc4ccccn4)cc3C(=O)[O-])c3ccc(=[N+](C)C)cc-3oc2c1 [ZIGIR-2]
- stability of intensity of labeled granules on repetitive imaging ([1]; MIN6 cells, imaged every 5 sec over ~30 min): remains stable
- increase of intensity from low Zn^2+ (TPEN) to high Zn^2+ state (Zn^2+/pyrithione) ([1]; MIN-6 cells, overall): about 12 fold
- increase of intensity from TPEN to Zn^2+/pyrithione, cell-to-cell variation ([1]; mean±SD, N=20 cells): 12.04±4.8 fold
- selectivity of fluorescence response for Zn^2+ [2]: selective for Zn^2+
